Test results as given in BindingDB's records for patent US20250213571 (Alumis, 2025).

Molecular target: T1, Non-receptor tyrosine-protein kinase TYK2 [556-888] (Homo sapiens, UniProt P29597)
T1 construct: 556-888
Assay: TYK2 JH2 Domain Binding Assay
Description: Binding constants for the compounds described herein against the JH2 domain were determined by the following protocol for a KINOMEscan assay (DiscoveRx). A fusion protein of a partial length construct of human TYK2 (JH2domain-pseudokinase) (amino acids G556 to D888 based on reference sequence NP_003322.3) and the DNA binding domain of NFkB was expressed in transiently transfected HEK293 cells. From these HEK 293 cells, extracts were prepared in M-PER extraction buffer (Pierce) in the presence of Protease Inhibitor Cocktail Complete (Roche) and Phosphatase Inhibitor Cocktail Set II (Merck) per manufacturers' instructions. The TYK2 (JH2domain-pseudokinase) fusion protein was labeled with a chimeric double-stranded DNA tag containing the NFkB binding site fused to an amplicon for qPCR readout, which was added directly to the expression extract (the final concentration of DNA-tag in the binding reaction is 0.1 nM).

T1 sequence (P29597 556-888): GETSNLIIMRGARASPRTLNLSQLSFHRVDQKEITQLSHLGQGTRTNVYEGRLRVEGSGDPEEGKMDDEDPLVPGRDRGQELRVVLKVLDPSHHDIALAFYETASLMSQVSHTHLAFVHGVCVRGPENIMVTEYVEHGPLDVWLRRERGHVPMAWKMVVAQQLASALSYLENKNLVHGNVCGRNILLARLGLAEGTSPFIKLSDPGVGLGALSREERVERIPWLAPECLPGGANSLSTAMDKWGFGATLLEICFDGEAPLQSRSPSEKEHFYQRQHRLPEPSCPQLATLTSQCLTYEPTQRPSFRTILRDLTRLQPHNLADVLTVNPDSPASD

In the case of `CNc1cc2nn3c(cnc13)C(=O)N[C@H](C)COCc1cc(c3c(c1)ncn3C)N2` [US20250213571, Compound 8], the Kd is reported as < 10 nM.
